Consider 19 molecules from paper PMC2957562 (Bioorganic & medicinal chemistry letters, 2010).

The structures appear in SMILES notation. A value given as a limit tells only on which side of the number the result lay.

For assay [1], the target named is T1, HIV-1 Integrase (Human immunodeficiency virus type 1 group M subtype B, UniProt P04585). The assay is described as follows: HIV-1 integrase 3′-processing inhibition. Format: biochemical.
For assay [2], the target named is T1, HIV-1 Integrase. The assay is described as follows: HIV-1 integrase strand transfer inhibition. The format is biochemical.

As for `COc1ccc(/C=C2\C(=O)N(c3cccc(Br)c3)N=C2C(F)(F)F)c(OC)c1OC` [Compound 4b], the IC50 on HIV-1 Integrase [1] and at HIV-1 Integrase [2] was over 100 µM each time. With `O=C1/C(=C\c2ccc(O)c(OCc3ccc(F)cc3)c2)C(C(F)(F)F)=NN1c1cccc(Br)c1` [Compound 4f], on HIV-1 Integrase [1], the IC50 was over 100 µM. Consider `COc1ccc(/C=C2\C(=O)N(c3ccccc3)N=C2C(F)(F)F)cc1OCc1ccc(F)cc1` [Compound 5a], for which the IC50 against HIV-1 Integrase [1] and against HIV-1 Integrase [2] was over 100 µM each time. As for `COc1ccc(/C=C2\C(=O)N(c3cccc(C)c3)N=C2C(F)(F)F)cc1OCc1ccc(F)cc1` [Compound 5b], the IC50 against HIV-1 Integrase [1] and on HIV-1 Integrase [2] was over 100 µM in each case. In turn, `COc1ccc(/C=C2\C(=O)N(c3cccc(-c4ccccc4)c3)N=C2C(F)(F)F)cc1OCc1ccc(F)cc1` [Compound 5d] returned an IC50 against HIV-1 Integrase [1] of over 100 µM. The same measure, in the same setting: to `COc1ccc(/C=C2\C(=O)N(c3cccc(F)c3)N=C2C(F)(F)F)cc1OCc1ccc(F)cc1` [Compound 5f] belongs over 100 µM; to `COc1ccc(/C=C2\C(=O)N(c3cccc(I)c3)N=C2C(F)(F)F)cc1OCc1ccc(F)cc1` [Compound 5i], over 100 µM. Turning to `COc1ccc(/C=C2\C(=O)N(c3cc(Cl)cc(Cl)c3)N=C2C(F)(F)F)cc1OCc1ccc(F)cc1` [Compound 5j], on HIV-1 Integrase [1], the IC50 was over 100 µM. The molecule `COc1ccc(/C=C2\C(=O)N(c3ccc(C(=O)O)cc3)N=C2C(F)(F)F)cc1OCc1ccc(F)cc1` [Compound 5m] returned an IC50 on HIV-1 Integrase [1] of over 100 µM. For `COc1ccc(/C=C2\C(=O)N(c3ccc(NS(C)(=O)=O)cc3)N=C2C(F)(F)F)cc1OCc1ccc(F)cc1` [Compound 5n], the IC50 on HIV-1 Integrase [1] and against HIV-1 Integrase [2] was over 100 µM in each case.

`COc1ccc(/C=C2\C(=O)N(c3nc4ccccc4s3)N=C2C(F)(F)F)cc1OCc1ccc(F)cc1` [Compound 5o]: the IC50 on HIV-1 Integrase [1] was over 100 µM. Take `COc1ccc(/C=C2\C(=O)N(c3cccc(Br)c3)N=C2C)cc1OCc1ccc(F)cc1` [Compound 6a]: the IC50 at HIV-1 Integrase [1] and on HIV-1 Integrase [2] was over 100 µM throughout. As to `CCC1=NN(c2cccc(Br)c2)C(=O)/C1=C\c1ccc(OC)c(OCc2ccc(F)cc2)c1` [Compound 6b], the IC50 against HIV-1 Integrase [1] and against HIV-1 Integrase [2] was over 100 µM in each case.

For `COc1ccc(/C=C2\C(=O)N(c3cccc(Br)c3)N=C2NC(=O)C(F)(F)F)cc1OCc1ccc(F)cc1` [Compound 6d], the concentration for half-maximal inhibition (IC50) against HIV-1 Integrase [1] and at HIV-1 Integrase [2] was over 100 µM in each case. In turn, `COc1ccc(/C=C2\C(=O)N(c3cccc(Br)c3)N=C2OC(C)=O)cc1OCc1ccc(F)cc1` [Compound 6e] yielded an IC50 on HIV-1 Integrase [1] of over 100 µM. On the same count and under the same terms, next, `COc1ccc(/C=C2\C(=O)N(c3cccc(Br)c3)N=C2COC(C)=O)cc1OCc1ccc(F)cc1` [Compound 6f]: over 100 µM.

Molecule `CCC(=O)OC1=NN(c2cccc(Br)c2)C(=O)/C1=C\c1ccc(OC)c(OCc2ccc(F)cc2)c1` [Compound 6g] yielded an IC50 against HIV-1 Integrase [1] of over 100 µM. Consider `O=C(O)C1=NN(c2cccc([N+](=O)[O-])c2)C(=O)/C1=C\c1ccc(OCc2ccc(F)cc2)c(O)c1` [Compound 14d], for which the “Strand Transfer IC50” value at HIV-1 Integrase [2] (in vitro, strand transfer step) is on record as “single-digit micromolar”.

`COc1ccc(/C=C2\C(=O)N(c3ccc(I)cc3)N=C2C(F)(F)F)cc1OCc1ccc(F)cc1` [Compound 56l] returned an IC50 at HIV-1 Integrase [1] of over 100 µM.

Usually IC50 stands for the concentration at which inhibition is half-maximal. The low end stands for greater potency in that assay, the high end for weaker potency in that assay.
